Assay results as given in US20250147039A1, “Compounds for complexation of rare earth elements and/or s-, p-, d- block metals, their coordination compounds, peptide conjugates, method of their preparation and use thereof” (USTAV ORGANICKE CHEMIE A BIOCHEMIE AV CR V.V.I., priority 2021, published 2025).

Experiments:
[1] = Formation of 1,5-cz-[Ln(Lig)] from Lig and Ln^III ions (metal dependent click-zip), MOPS/NaOH buffer pH 7.0, analytical HPLC (Charts 1, 2); settings: MOPS/NaOH buffer pH 7.0
[2] = Formation of 1,5-cz-[M(Lig)] from Lig and M^III ions (metal dependent click-zip) (Charts 4, 5); type: physicochemical; settings: MOPS/NaOH buffer pH 7.0; for conversion to 1,5-cz-[M(Lig)], Sc^III / conversion to 1,5-cz-[M(Lig)], Y^III: TD728, TD827 in 50% i-PrOH; for conversion to 1,5-cz-[M(Lig)], Y^III: TD714 sum of two diastereoisomers

CC(C)(C#Cc1cccc(CN2CCN(CC(=O)O)CCN(Cc3cccc(CN=[N+]=[N-])n3)CCN(CC(=O)O)CC2)n1)NC(=O)OC(C)(C)C [TD1105]
conversion to 1,5-cz-[Ln(Lig)] with hydrolysed group in the side chain, Ce^III ([1]; after 1 week at 80° C.): 8% | conversion to 1,5-cz-[Ln(Lig)], Ce^III ([1]; after 1 week at 80° C.): 0% | conversion to 1,5-cz-[Ln(Lig)] with hydrolysed group in the side chain, Ce^III ([1]; after 1 hour at 80° C.): 0% | conversion to 1,5-cz-[Ln(Lig)], Ce^III ([1]; after 1 hour at 80° C.): 0% | conversion to 1,5-cz-[Ln(Lig)] with hydrolysed group in the side chain, Dy^III ([1]; after 1 week at 80° C.): 82% | conversion to 1,5-cz-[Ln(Lig)], Dy^III ([1]; after 1 week at 80° C.): 0% | conversion to 1,5-cz-[Ln(Lig)] with hydrolysed group in the side chain, Dy^III ([1]; after 1 hour at 80° C.): 0% | conversion to 1,5-cz-[Ln(Lig)], Dy^III ([1]; after 1 hour at 80° C.): 2% | conversion to 1,5-cz-[Ln(Lig)] with hydrolysed group in the side chain, Er^III ([1]; after 1 week at 80° C.): 92% | conversion to 1,5-cz-[Ln(Lig)], Er^III ([1]; after 1 week at 80° C.): 1% | conversion to 1,5-cz-[Ln(Lig)] with hydrolysed group in the side chain, Er^III ([1]; after 1 hour at 80° C.): 2% | conversion to 1,5-cz-[Ln(Lig)], Er^III ([1]; after 1 hour at 80° C.): 4% | conversion to 1,5-cz-[Ln(Lig)] with hydrolysed group in the side chain, Eu^III ([1]; after 1 week at 80° C.): 49% | conversion to 1,5-cz-[Ln(Lig)], Eu^III ([1]; after 1 week at 80° C.): 1% | conversion to 1,5-cz-[Ln(Lig)] with hydrolysed group in the side chain, Eu^III ([1]; after 1 hour at 80° C.): 0% | conversion to 1,5-cz-[Ln(Lig)], Eu^III ([1]; after 1 hour at 80° C.): 1% | conversion to 1,5-cz-[Ln(Lig)] with hydrolysed group in the side chain, Gd^III ([1]; after 1 week at 80° C.): 57% | conversion to 1,5-cz-[Ln(Lig)], Gd^III ([1]; after 1 week at 80° C.): 2% | conversion to 1,5-cz-[Ln(Lig)] with hydrolysed group in the side chain, Gd^III ([1]; after 1 hour at 80° C.): 0% | conversion to 1,5-cz-[Ln(Lig)], Gd^III ([1]; after 1 hour at 80° C.): 1% | conversion to 1,5-cz-[Ln(Lig)] with hydrolysed group in the side chain, Ho^III ([1]; after 1 week at 80° C.): 87% | conversion to 1,5-cz-[Ln(Lig)], Ho^III ([1]; after 1 week at 80° C.): 1% | conversion to 1,5-cz-[Ln(Lig)] with hydrolysed group in the side chain, Ho^III ([1]; after 1 hour at 80° C.): 1% | conversion to 1,5-cz-[Ln(Lig)], Ho^III ([1]; after 1 hour at 80° C.): 3% | conversion to 1,5-cz-[Ln(Lig)] with hydrolysed group in the side chain, La^III ([1]; after 1 week at 80° C.): 11% | conversion to 1,5-cz-[Ln(Lig)], La^III ([1]; after 1 week at 80° C.): 0% | conversion to 1,5-cz-[Ln(Lig)] with hydrolysed group in the side chain, La^III ([1]; after 1 hour at 80° C.): 0% | conversion to 1,5-cz-[Ln(Lig)], La^III ([1]; after 1 hour at 80° C.): 0% | conversion to 1,5-cz-[Ln(Lig)] with hydrolysed group in the side chain, Lu^III ([1]; after 1 week at 80° C.): 98% | conversion to 1,5-cz-[Ln(Lig)], Lu^III ([1]; after 1 week at 80° C.): 1% | conversion to 1,5-cz-[Ln(Lig)] with hydrolysed group in the side chain, Lu^III ([1]; after 1 hour at 80° C.): 9% | conversion to 1,5-cz-[Ln(Lig)], Lu^III ([1]; after 1 hour at 80° C.): 8% | conversion to 1,5-cz-[Ln(Lig)] with hydrolysed group in the side chain, Nd^III ([1]; after 1 week at 80° C.): 23% | conversion to 1,5-cz-[Ln(Lig)], Nd^III ([1]; after 1 week at 80° C.): 0% | conversion to 1,5-cz-[Ln(Lig)] with hydrolysed group in the side chain, Nd^III ([1]; after 1 hour at 80° C.): 0% | conversion to 1,5-cz-[Ln(Lig)], Nd^III ([1]; after 1 hour at 80° C.): 1% | conversion to 1,5-cz-[Ln(Lig)] with hydrolysed group in the side chain, Pr^III ([1]; after 1 week at 80° C.): 21% | conversion to 1,5-cz-[Ln(Lig)], Pr^III ([1]; after 1 week at 80° C.): 0% | conversion to 1,5-cz-[Ln(Lig)] with hydrolysed group in the side chain, Pr^III ([1]; after 1 hour at 80° C.): 0% | conversion to 1,5-cz-[Ln(Lig)], Pr^III ([1]; after 1 hour at 80° C.): 0% | conversion to 1,5-cz-[Ln(Lig)] with hydrolysed group in the side chain, Sm^III ([1]; after 1 week at 80° C.): 44% | conversion to 1,5-cz-[Ln(Lig)], Sm^III ([1]; after 1 week at 80° C.): 1% | conversion to 1,5-cz-[Ln(Lig)] with hydrolysed group in the side chain, Sm^III ([1]; after 1 hour at 80° C.): 0% | conversion to 1,5-cz-[Ln(Lig)], Sm^III ([1]; after 1 hour at 80° C.): 1% | conversion to 1,5-cz-[Ln(Lig)] with hydrolysed group in the side chain, Tb^III ([1]; after 1 week at 80° C.): 74% | conversion to 1,5-cz-[Ln(Lig)], Tb^III ([1]; after 1 week at 80° C.): 1% | conversion to 1,5-cz-[Ln(Lig)] with hydrolysed group in the side chain, Tb^III ([1]; after 1 hour at 80° C.): 0% | conversion to 1,5-cz-[Ln(Lig)], Tb^III ([1]; after 1 hour at 80° C.): 2% | conversion to 1,5-cz-[Ln(Lig)] with hydrolysed group in the side chain, Tm^III ([1]; after 1 week at 80° C.): 94% | conversion to 1,5-cz-[Ln(Lig)], Tm^III ([1]; after 1 week at 80° C.): 1% | conversion to 1,5-cz-[Ln(Lig)] with hydrolysed group in the side chain, Tm^III ([1]; after 1 hour at 80° C.): 3% | conversion to 1,5-cz-[Ln(Lig)], Tm^III ([1]; after 1 hour at 80° C.): 5% | conversion to 1,5-cz-[Ln(Lig)] with hydrolysed group in the side chain, Yb^III ([1]; after 1 week at 80° C.): 97% | conversion to 1,5-cz-[Ln(Lig)], Yb^III ([1]; after 1 week at 80° C.): 1% | conversion to 1,5-cz-[Ln(Lig)] with hydrolysed group in the side chain, Yb^III ([1]; after 1 hour at 80° C.): 5% | conversion to 1,5-cz-[Ln(Lig)], Yb^III ([1]; after 1 hour at 80° C.): 7% | conversion to 1,5-cz-[Ln(Lig)] with hydrolysed group in the side chain, Sc^III ([2]; 1 week at 80° C.): 60% | conversion to 1,5-cz-[Ln(Lig)] with hydrolysed group in the side chain, Y^III ([2]; 1 week at 80° C.): 87% | conversion to 1,5-cz-[M(Lig)], Sc^III ([2]; 1 week at 80° C.): 0% | conversion to 1,5-cz-[M(Lig)], Y^III ([2]; 1 week at 80° C.): 0% | conversion to 1,5-cz-[Ln(Lig)] with hydrolysed group in the side chain, Sc^III ([2]; 1 hour at 80° C.): 0% | conversion to 1,5-cz-[Ln(Lig)] with hydrolysed group in the side chain, Y^III ([2]; 1 hour at 80° C.): 1% | conversion to 1,5-cz-[M(Lig)], Sc^III ([2]; 1 hour at 80° C.): 0% | conversion to 1,5-cz-[M(Lig)], Y^III ([2]; 1 hour at 80° C.): 2%

[N-]=[N+]=NCc1cc(-c2ccccc2)cc(CN2CCN(CC(=O)O)CCN(Cc3cccc(C#CCN)n3)CCN(CC(=O)O)CC2)n1 [TD722]
conversion to 1,5-cz-[Ln(Lig)], Ce^III ([1]; after 1 week at 80° C.): 1% | conversion to 1,5-cz-[Ln(Lig)], Ce^III ([1]; after 1 hour at 80° C.): 0% | conversion to 1,5-cz-[Ln(Lig)], Dy^III ([1]; after 1 week at 80° C.): 65% | conversion to 1,5-cz-[Ln(Lig)], Dy^III ([1]; after 1 hour at 80° C.): 5% | conversion to 1,5-cz-[Ln(Lig)], Er^III ([1]; after 1 week at 80° C.): 91% | conversion to 1,5-cz-[Ln(Lig)], Er^III ([1]; after 1 hour at 80° C.): 17% | conversion to 1,5-cz-[Ln(Lig)], Eu^III ([1]; after 1 week at 80° C.): 14% | conversion to 1,5-cz-[Ln(Lig)], Eu^III ([1]; after 1 hour at 80° C.): 1% | conversion to 1,5-cz-[Ln(Lig)], Gd^III ([1]; after 1 week at 80° C.): 19% | conversion to 1,5-cz-[Ln(Lig)], Gd^III ([1]; after 1 hour at 80° C.): 2% | conversion to 1,5-cz-[Ln(Lig)], Ho^III ([1]; after 1 week at 80° C.): 82% | conversion to 1,5-cz-[Ln(Lig)], Ho^III ([1]; after 1 hour at 80° C.): 9% | conversion to 1,5-cz-[Ln(Lig)], La^III ([1]; after 1 week at 80° C.): 2% | conversion to 1,5-cz-[Ln(Lig)], La^III ([1]; after 1 hour at 80° C.): 0% | conversion to 1,5-cz-[Ln(Lig)], Lu^III ([1]; after 1 week at 80° C.): 96% | conversion to 1,5-cz-[Ln(Lig)], Lu^III ([1]; after 1 hour at 80° C.): 49% | conversion to 1,5-cz-[Ln(Lig)], Nd^III ([1]; after 1 week at 80° C.): 4% | conversion to 1,5-cz-[Ln(Lig)], Nd^III ([1]; after 1 hour at 80° C.): 0% | conversion to 1,5-cz-[Ln(Lig)], Pr^III ([1]; after 1 week at 80° C.): 3% | conversion to 1,5-cz-[Ln(Lig)], Pr^III ([1]; after 1 hour at 80° C.): 0% | conversion to 1,5-cz-[Ln(Lig)], Sm^III ([1]; after 1 week at 80° C.): 9% | conversion to 1,5-cz-[Ln(Lig)], Sm^III ([1]; after 1 hour at 80° C.): 1% | conversion to 1,5-cz-[Ln(Lig)], Tb^III ([1]; after 1 week at 80° C.): 54% | conversion to 1,5-cz-[Ln(Lig)], Tb^III ([1]; after 1 hour at 80° C.): 3% | conversion to 1,5-cz-[Ln(Lig)], Tm^III ([1]; after 1 week at 80° C.): 96% | conversion to 1,5-cz-[Ln(Lig)], Tm^III ([1]; after 1 hour at 80° C.): 27% | conversion to 1,5-cz-[Ln(Lig)], Yb^III ([1]; after 1 week at 80° C.): 96% | conversion to 1,5-cz-[Ln(Lig)], Yb^III ([1]; after 1 hour at 80° C.): 38% | conversion to 1,5-cz-[M(Lig)], Sc^III ([2]; 1 week at 80° C.): 14% | conversion to 1,5-cz-[M(Lig)], Y^III ([2]; 1 week at 80° C.): 71% | conversion to 1,5-cz-[M(Lig)], Sc^III ([2]; 1 hour at 80° C.): 3% | conversion to 1,5-cz-[M(Lig)], Y^III ([2]; 1 hour at 80° C.): 9%
